Results taken from the NIST ThermoML archive (doi:10.1016/j.jct.2005.07.019).

Test: mn = molality of the nth substance listed, in mol/kg
Settings: 350 kPa, Liquid, Extra sensitive DSC

NC(CO)C(=O)O (centres undefined) [(.+-.)-serine] + O
apparent molar heat capacity [J/K/mol]
Settings | m1 = 0.015 | m1 = 0.0308 | m1 = 0.0509 | m1 = 0.0807 | m1 = 0.1251 | m1 = 0.2505
278.15 K | 50 | 53.4 | 56.4 | 56.6 | 57.8 | 68
283.15 K | 71 | 74.1 | 76.7 | 76.7 | 77.7 | 86.3
288.15 K | 87 | 90.3 | 92.6 | 92.6 | 93.2 | 101
293.15 K | 101 | 103.7 | 105.7 | 105.8 | 106.1 | 113.1
298.15 K | 112 | 114.5 | 116.5 | 116.5 | 116.7 | 123
303.15 K | 121 | 123.9 | 125.8 | 125.7 | 125.7 | 131.4
308.15 K | 130 | 132.2 | 133.9 | 133.6 | 133.4 | 138.6
313.15 K | 137 | 139.3 | 140.7 | 140.4 | 140.2 | 144.9
318.15 K | 143 | 145.2 | 146.5 | 146.2 | 145.8 | 150.2
323.15 K | 149 | 150.3 | 151.6 | 151.3 | 150.9 | 154.9
328.15 K | 154 | 155 | 156.2 | 155.8 | 155.3 | 158.9
333.15 K | 158 | 159.4 | 160.4 | 159.9 | 159.3 | 162.6
338.15 K | 162 | 163.3 | 164.2 | 163.6 | 162.9 | 165.92
343.15 K | 166 | 166.3 | 167.2 | 166.6 | 165.9 | 168.74
348.15 K | 168 | 169 | 170.1 | 169.5 | 168.8 | 171.27
353.15 K | 170 | 171.6 | 172.5 | 172.1 | 171.2 | 173.56
358.15 K | 172 | 173.7 | 174.6 | 174 | 173.1 | 175.45
363.15 K | 174 | 175.7 | 176.6 | 176.2 | 175.3 | 177.16
368.15 K | 175 | 177.9 | 178.6 | 178.4 | 177 | 178.66
373.15 K | 177 | 179.9 | 180.5 | 179.7 | 178.2 | 179.8
378.15 K | 177 | 180.9 | 181.3 | 180.7 | 179.3 | 180.67
383.15 K | 177 | 181.7 | 182.2 | 181.5 | 180.2 | 181.46
388.15 K | 175 | 182.6 | 183 | 182.2 | 180.9 | 181.91
393.15 K | 173 | 183.3 | 183.3 | 182.8 | 181.6 | 182.2
